Our source for the IC50 values is US20210139484A1, “DIHYDROISOQUINOLINE-2(1H)-CARBOXAMIDE AND RELATED COMPOUNDS AND THEIR USE IN TREATING MEDICAL CONDITIONS” (GOSSAMER BIO SERVICES, INC., priority 2018, published 2021).

One experiment concerns the target T1, human HPK1 protein (Homo sapiens, UniProt Q92918).
T1 construct: recombinant human HPK1 protein (a.a. 1-346) was expressed in Sf9 insect cells; GST (N); purchased Signalchem M23-11G; host or cells: Sf9 insect cells (baculovirus)
T1 sequence (Q92918 1-346): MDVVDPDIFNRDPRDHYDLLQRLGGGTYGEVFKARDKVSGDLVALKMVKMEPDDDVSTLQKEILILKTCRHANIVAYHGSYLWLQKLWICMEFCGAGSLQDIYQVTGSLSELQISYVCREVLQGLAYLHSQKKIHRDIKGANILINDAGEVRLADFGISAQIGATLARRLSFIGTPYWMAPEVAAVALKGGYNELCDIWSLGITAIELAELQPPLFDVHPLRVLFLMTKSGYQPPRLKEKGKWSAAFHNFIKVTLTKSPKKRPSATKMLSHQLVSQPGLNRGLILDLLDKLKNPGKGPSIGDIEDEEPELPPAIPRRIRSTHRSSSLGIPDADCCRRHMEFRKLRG
The experiment is described as follows: Human HPK1 protein TR-FRET assay. It is filed as biochemical. To be noted: 1 mM ATP, Table 19. The essentials:
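Read-out was TR-FRET using Eu-labeled anti-phospho-CREB (Ser133) antibody, with the 665/615 nm signal ratio normalised to DMSO-only wells and fitted by a 4-parameter logistic model for IC50. Reactions held 10 nM Sf9-expressed GST-HPK1 (a.a. 1-346), 100 nM CREBtide and 1 mM ATP, run 60 minutes at room temperature, pH 7.5.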
A general note: In TR-FRET formats the signal depends on donor and acceptor labels being close together.
Molecule `CCN1CCN(Cc2ccc(NC(=O)N3CCc4ccc(Oc5cc(NC)ncn5)cc4C3)cc2C(F)(F)F)CC1` [II-1] gave an IC50 below 500 nM.
The same measure, in the same setting: in the case of `CCN1CCN(Cc2ccc(NC(=O)N3CCc4ncc(Oc5ccnc6[nH]ncc56)cc4C3C)cc2C(F)(F)F)CC1` (single isomer, unassigned) [VIII-4] it was 500 to 5000 nM; in that of `CCN1CCN(Cc2ccc(NC(=O)N3Cc4cc(Oc5ccnc6[nH]c(C)cc56)cnc4C(C)C3)cc2C(F)(F)F)CC1` (single isomer, unassigned) [VII-4], below 500 nM.
On the same count and under the same terms, in the case of `CCN1CCN(Cc2ccc(NC(=O)N3CCc4cc(F)c(Oc5ccnc6[nH]ccc56)cc4C3C)cc2C(F)(F)F)CC1` (single isomer, unassigned) [IV-6] it was below 500 nM; in that of `CCN1CCN(Cc2ccc(NC(=O)N3Cc4cc(Oc5ccnc6[nH]c(C)cc56)ccc4C(C(C)C)C3)cc2C(F)(F)F)CC1` (stereo not drawn) [IV-36], below 500 nM.
Take `CCC1CN(C(=O)Nc2ccc(CN3CCN(CC)CC3)c(C(F)(F)F)c2)Cc2cc(Oc3ccnc4[nH]c(C)cc34)cnc21` (single isomer, unassigned) [VII-23]: the concentration for half-maximal inhibition (IC50) is below 500 nM.
Still for that read-out and setting: as for `CCN1CCN(Cc2ccc(NC(=O)N3CCc4ccc(Oc5ccnc6[nH]c(CCOC)cc56)cc4[C@@H]3C)cc2C(F)(F)F)CC1` [V-25], the figure is below 500 nM.
Same read-out and setting: as for `CCN1CCN(Cc2ccc(NC(=O)N3CCc4c(F)cc(Oc5ccnc6[nH]ccc56)cc4C3C)cc2C(F)(F)F)CC1` (stereo not drawn) [IV-14], the figure is below 500 nM; as for `CCN1CCN(Cc2ccc(NC(=O)N3CCc4cc(Oc5ccnc6[nH]ccc56)ccc4C3)cc2C(F)(F)F)CC1` [X-1], 500 to 5000 nM.
Molecule `CCN1CCN(Cc2ccc(NC(=O)N3CCc4c(F)cc(Oc5ccnc6[nH]ccc56)cc4C3C)cc2C(F)(F)F)CC1` (stereo not drawn) [IV-15] yielded a half-inhibitory concentration (IC50) below 500 nM.
The same measure, in the same setting: in the case of `CCN1CCN(Cc2ccc(NC(=O)N3CC4CCC3c3cc(Oc5ccnc6[nH]ccc56)ccc34)cc2C(F)(F)F)CC1` (stereo not drawn) [compound 14, 7-((1H-pyrrolo[2,3-b]pyridin-4-yl)oxy)-N-(4-((4-ethylpiperazin-1-yl)methyl)-3-(trifluoromethyl)phenyl)-1,2,3,4-tetrahydro-1,4-(epiminomethano)naphthalene-10-carboxamide] it was 500 to 5000 nM; in that of `Cc1cc2c(Oc3cnc4c(c3)CN(C(=O)Nc3cnc(OC5CCN(C)CC5O)c(C(F)(F)F)c3)CC4C)ccnc2[nH]1` (stereo not drawn) [VII-19], below 500 nM.
Molecule `CCN1CCN(Cc2ccc(NC(=O)N3CCc4ccc(Oc5c(F)cnc6[nH]ccc56)cc4C3)cc2C(F)(F)F)CC1` [III-8] gave an IC50 below 500 nM.
`CCN1CCC(Oc2ccc(NC(=O)N3CCc4ccc(Oc5ccnc6[nH]ccc56)cc4[C@@H]3C)cc2C(F)F)CC1` [V-16]: the IC50 was 500 to 5000 nM.
Molecule `CCN1CCN(Cc2ccc(NC(=O)N3CCc4ccc(Oc5cc(NC(=O)C6CC6)ncn5)cc4C3)cc2C(F)(F)F)CC1` [II-10] came in with a 50% inhibitory concentration (IC50) below 500 nM.
Still for that read-out and setting: as for `Cc1cc2c(Oc3ccc4c(c3)[C@H](C)N(C(=O)Nc3cnc(OCCCN(C)C)c(C(F)(F)F)c3)CC4)ccnc2[nH]1` [VI-16], the figure is 500 to 5000 nM; as for `CCN1CCN(Cc2ccc(NC(=O)N3Cc4cc(Oc5ccnc6[nH]c(C)cc56)ccc4C(C)C3)cc2C(F)(F)F)CC1` (stereo not drawn) [IV-18], below 500 nM.
The same measure, in the same setting: as for `CCN1CCN(Cc2ccc(NC(=O)N3CCc4ccc(Oc5ccnc6[nH]ncc56)cc4C3)cc2C(F)(F)F)CC1` [II-4], the figure is below 500 nM; as for `CCN1CCN(Cc2ccc(NC(=O)N3CCc4ccc(Oc5ccnn6cccc56)cc4C3)cc2C(F)(F)F)CC1` [II-19], below 500 nM.
In turn, `CCN1CCN(Cc2ccc(NC(=O)N3Cc4cc(Oc5ccnc6[nH]c(C)cc56)ccc4C(C)C3)cc2C(F)(F)F)CC1` (stereo not drawn) [IV-19] yielded an IC50 below 500 nM.
Same read-out and setting: as for `CCN1CCN(Cc2ccc(NC(=O)N3Cc4cc(Oc5ccnc6[nH]c(C)cc56)ccc4C(C)C3)cc2C(F)(F)F)CC1` (stereo not drawn) [IV-17], the figure is below 500 nM; as for `Cc1cc2c(Oc3ccc4c(c3)[C@H](C)N(C(=O)Nc3cnc(OC5CCN(C)CC5O)c(C(F)(F)F)c3)CC4)ccnc2[nH]1` (stereo in doubt) [VI-9], 500 to 5000 nM.
Still for that read-out and setting: as for `Cc1cc2c(Oc3ccc4c(c3)[C@H](C)N(C(=O)Nc3cnc(OC5CCN(C)CC5C)c(C(F)(F)F)c3)CC4)ccnc2[nH]1` (stereo in doubt) [VI-5], the figure is below 500 nM.
Turning to `Cc1cc2c(Oc3cnc4c(c3)CN(C(=O)Nc3cnc(OC5CCN(C)CC5)c(C(F)(F)F)c3)CC4C)ccnc2[nH]1` (single isomer, unassigned) [VII-8], the IC50 was below 500 nM.

Still in this experiment, the particulars now being: 1 mM ATP, Table 20.
`CCN1CCN(Cc2ccc(NC(=O)N3Cc4cc(Oc5ccnc6[nH]ccc56)cnc4[C@@H](C)C3)cc2C(F)(F)F)CC1` [XI-10] had an IC50 below 500 nM.
On the same count and under the same terms, in the case of `CCN1CCN(Cc2ccc(NC(=O)N3Cc4cc(Oc5ccnc6[nH]ccc56)cnc4C[C@H]3C)cc2C(F)(F)F)CC1` [XVIII-19] it was below 500 nM; in that of `CC[C@H]1CN(C(=O)Nc2ccc(CN3CCN(CC)CC3)c(C(F)(F)F)c2)Cc2cc(Oc3ccnc4[nH]c(C#N)cc34)cnc21` [XIV-20], below 500 nM; in that of `C[C@H]1CN(C(=O)Nc2ccc(CN3CCN(C)CC3)c(C(F)(F)F)c2)Cc2cc(Oc3c(F)cnc4[nH]c(CO)cc34)ccc21` [XV-38], below 500 nM.
Same read-out and setting: as for `CC[C@H]1CN(C(=O)Nc2ccc(CN3CCN(CCO)CC3)c(C(F)F)c2)Cc2cc(Oc3ncnc4[nH]c(C5CC5)cc34)ccc21` [XV-2], the figure is below 500 nM; as for `Cn1cc(-c2cc3c(Oc4ccc5c(c4)CN(C(=O)Nc4ccc(CN6CCN(CCO)CC6)c(C(F)(F)F)c4)CC5)c(F)cnc3[nH]2)cn1` [XII-14], below 500 nM; as for `CC[C@@H]1CN(C(=O)Nc2ccc(CN3CCN(C)CC3)c(C(F)F)c2)Cc2cc(Oc3ccnc4[nH]c(C5(O)COC5)cc34)ccc21` [XV-14], below 500 nM.
`CCN1CCN(Cc2ccc(NC(=O)N3CCc4c(cc(F)cc4Oc4ncnn5cccc45)C3)cc2C(F)(F)F)CC1` [XI-2] came in with an IC50 of 500 to 5000 nM.
Still for that read-out and setting: in the case of `CC[C@@H]1CN(C)CC[C@H]1Oc1ncc(NC(=O)N2CCc3ccc(Oc4ccnc5[nH]c(C)cc45)cc3[C@@H]2C)cc1C(F)(F)F` [XIII-1] it was below 500 nM.
The same measure, in the same setting: as for `CC[C@H]1CN(C(=O)Nc2ccc(CN3CCN(CC)CC3)c(C(F)(F)F)c2)Cc2cc(Oc3ccnc4[nH]c(CCOC)cc34)cnc21` [XIV-22], the figure is below 500 nM; as for `CCN1CCN(Cc2ccc(NC(=O)N3Cc4cc(Oc5ncnc6[nH]c(C)cc56)cnc4[C@@H](C)C3)cc2C(F)(F)F)CC1` [XI-6], below 500 nM; as for `CC[C@@H]1CN(C(=O)Nc2ccc(CN3CCN(CC)CC3)c(C(F)(F)F)c2)Cc2cc(Oc3ccnc4[nH]c(C#N)cc34)cnc21` [XIV-19], below 500 nM.
On the same count and under the same terms, as for `CC[C@@H]1CN(C(=O)Nc2cnc(CN3CCN(CC)CC3)c(C(F)(F)F)c2)Cc2cc(Oc3ccnc4[nH]c(CCOC)cc34)cnc21` [XIV-26], the figure is below 500 nM; as for `C[C@@H]1Cc2ccc(Oc3ccnc4[nH]c(C(=O)N(C)C)cc34)cc2CN1C(=O)Nc1cnc(OC2CCN(C)CC2)c(C(F)(F)F)c1` [XVI-7], below 500 nM.
Consider `C[C@@H]1Cc2ccc(Oc3ccnc4[nH]c(C5(O)CC5)cc34)cc2CN1C(=O)Nc1cnc(CN2CCN(C)CC2)c(C(F)(F)F)c1` [XVI-3], for which the IC50 was below 500 nM.
Same read-out and setting: in the case of `C[C@@H]1Cc2ccc(Oc3c(F)cnc4[nH]c(C5(O)CC5)cc34)cc2CN1C(=O)Nc1cnc(CN2CCN(C)CC2)c(C(F)(F)F)c1` [XVI-8] it was below 500 nM; in that of `CC[C@H]1CN(C(=O)Nc2ccc(CN3CCN(C)CC3)c(C(F)(F)F)c2)Cc2cc(Oc3ccnc4[nH]c(-c5n[nH]c(=O)o5)cc34)cnc21` [XIV-114], below 500 nM; in that of `CCN1CCN(Cc2ccc(NC(=O)N3Cc4cc(Oc5ccnc6[nH]c(=O)cnc56)cnc4C(C)C3)cc2C(F)(F)F)CC1` (single isomer, unassigned) [XIV-7], 500 to 5000 nM.
Same read-out and setting: in the case of `C[C@H]1CN(C(=O)Nc2cnc(CN3CCN(C)CC3)c(C(F)(F)F)c2)Cc2cc(Oc3c(F)cnc4[nH]c(-c5cnn(C)c5)cc34)ccc21` [XII-11] it was below 500 nM.
The same measure, in the same setting: in the case of `CCC1CN(C(=O)Nc2ccc(CN3CCN(CC)CC3)c(C(F)(F)F)c2)Cc2cc(Oc3ccnc4[nH]c(C5=CCOC5)cc34)cnc21` (stereo not drawn) [XIV-62] it was below 500 nM.
`CCN1CCN(Cc2ccc(NC(=O)N3CCc4ccc(Oc5c(F)cnc6[nH]c(-c7cnn(C)c7)cc56)cc4[C@@H]3C)cc2C(F)(F)F)CC1` [XII-2] had an IC50 below 500 nM.
Same read-out and setting: as for `CCC1CN(C(=O)Nc2ccc(CN3CCN(CC)CC3)c(C(F)(F)F)c2)Cc2cc(Oc3cc(NC(=O)OC)ncc3F)cnc21` (stereo not drawn) [XIV-87], the figure is below 500 nM.
Still for that read-out and setting: in the case of `CC[C@H]1CN(C(=O)Nc2ccc(CN3CCNCC3)c(C(F)(F)F)c2)Cc2cc(Oc3ccnc4[nH]c(-c5noc(C)n5)cc34)cnc21` [XIV-136] it was below 500 nM.
On the same count and under the same terms, as for `Cc1cc2c(Oc3cnc4c(c3)CN(C(=O)Nc3ccc(CN5CCN(C)CC5)c(C(F)(F)F)c3)C[C@@H]4C)ccnc2[nH]1` [XIV-90], the figure is below 500 nM; as for `CC[C@@H]1CN(C(=O)Nc2ccc(CN3CCN(C)CC3)c(C(F)(F)F)c2)Cc2cc(Oc3ccnc4[nH]c(C5(O)COC5)cc34)ccc21` [XV-12], below 500 nM; as for `CC[C@H]1CN(C(=O)Nc2ccc(CN3CCNCC3)c(C(F)(F)F)c2)Cc2cc(Oc3ccnn4cc(C(=O)N(C)C)cc34)cnc21` [XIV-124], below 500 nM.
In turn, `CCN1CCN(Cc2ccc(NC(=O)N3CCc4ccc(Oc5c(F)cnc6[nH]c(C7(O)COC7)cc56)cc4[C@@H]3C)cc2C(F)(F)F)CC1` [XIII-16] had a 50% inhibitory concentration (IC50) below 500 nM.

Usually IC50 stands for the concentration that inhibits the measured activity by half. A low value points to greater potency.
